Measurements: patent US20060014813A1, “Pharmaceutical compounds that regenerate in vivo” (priority 2003, published 2006)
One block for each molecule: values may come before it.

Legend:
[1] = system: COX-2; details: animal models of Parkinson's disease; cited from earlier work
[2] = target: T1, msrA (Bos taurus, UniProt P54149); assay: Calorimetric test of whether a compound is turned over by msrA (protein injected into compound solution); format: biochemical, bovine; details: compound at 500 μM or as high as possible, three injections of msrA, heat evolved
T1 construct: made in house; host or cells: E. coli
T1 sequence (P54149 21-233): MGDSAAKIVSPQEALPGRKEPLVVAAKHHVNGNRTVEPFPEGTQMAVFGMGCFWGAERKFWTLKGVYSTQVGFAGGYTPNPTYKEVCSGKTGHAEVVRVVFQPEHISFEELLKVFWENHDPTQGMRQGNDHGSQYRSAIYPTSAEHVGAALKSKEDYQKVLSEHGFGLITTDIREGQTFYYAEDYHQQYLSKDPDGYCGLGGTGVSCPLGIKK
Protocol: Compounds 105-108 in the list were only soluble below 1 mM. However, an assessment was made as to whether those compounds were substrates for msrA (i.e., whether they are turned over by the enzyme), by employing the following experimental protocol. The compounds were dissolved in the usual buffer [50 mM Tris, 50 mM KCl, 5 mM TCEP, pH 7.50] at a concentration of 500 μM, or as high as possible. 1.8 ml of this solution was loaded into the calorimetric cell, while the syringe was filled with a […] solution of msrA in the same buffer. After the stirring and equilibration period has elapsed, three injections of protein were made, spaced out over 20 minute intervals. If the compound is a substrate for msrA, a large amount of heat will be evolved after the first injection (several millicalories generated over ˜10 minutes), while the other two injections of protein will register only small heats (tens of microcalories), before the signal quickly returns to the baseline. These smaller heats represent the heat of dilution of the protein into the solution in the calorimetric cell.
Once the substrate has been fully reacted and the heat output has returned to the baseline, further injections of protein show only the heat of dilution of the enzyme.

[3] = target: T2, bovine msrA (Bos taurus, UniProt P54149); assay: Methionine sulfoxide reductase assay by isothermal titration calorimetry (kcat, KM); format: biochemical; details: substrate for msrA; 300 nM enzyme, pH 7.50, 37° C
T2 construct: made in house; host or cells: E. coli
T2 sequence (P54149 21-233): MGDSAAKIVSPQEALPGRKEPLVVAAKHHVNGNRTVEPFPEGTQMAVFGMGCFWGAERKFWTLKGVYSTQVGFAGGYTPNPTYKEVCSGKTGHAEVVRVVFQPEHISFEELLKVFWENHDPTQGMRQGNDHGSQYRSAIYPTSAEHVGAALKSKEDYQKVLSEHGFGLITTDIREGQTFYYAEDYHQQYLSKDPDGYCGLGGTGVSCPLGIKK
Protocol: (§1) The compounds of the present invention may be assayed for activity both in vitro and in vivo. For example, in order to assay whether a compound of this invention will serve as a regenerable Msr substrate, the compound is titrated in several increments into a solution of the enzyme msrA (pH 7.5, 37 °C, reducing buffer) contained in a microcalorimeter. The heat (ΔH) from the reaction is measured at each step. These power output levels are converted into rates of reaction according to Todd & Gomez, Anal. Biochem., 296, pp. 1-9 (2001), and the resulting rates are plotted versus substrate concentration. From this plot, the kcat and KM are determined according to standard Michaelis-Menton enzyme kinetics.
An assay using isothermal titration calorimetry was developed. […] The quicker such compounds are converted back to their reduced form by MSR, the more equivalents of ROS they will eliminate before being cleared from the body. The assay was used to determine the enzymatic parameters (kcat and KM) of the compounds of this invention interacting with msrA under standard conditions. Chemical modifications that increase kcat, a measure of how quickly a compound was turned over by the enzyme, and/or decrease its KM, a measure of how readily a compound bound to the enzyme, represent improvements in that compound's ability to be efficiently processed by msrA.
In order to run the assay bovine msrA was overexpressed in E. coli and purified according to the method described in Lowther et al., Proc. Natl. Acad. Sci. USA, 97, pp. 6463-6468 (2000), the disclosure of which is herein incorporated by reference. A 300 nM solution of the enzyme was prepared in 50 mM Tris, 50 mM KCl, 4 mM tris(carboxyethyl)phosphine (TCEP), pH 7.50. A 25 mM solution of the compound to be tested was prepared in the identical buffer. A 1.8 ml aliquot of the msrA enzyme solution was loaded into the cell of a VP-ITC instrument from Microcal Corp. (Northampton, Mass.). The test compound solution was loaded into the syringe, and the entire system was allowed to come to thermal equilibrium at 37° C. while stirring at a rate of 300 rpm. Once equilibrium was established, a series of small injections ([…]) of the compound into the protein solution were made, and the increasing power output of the enzyme was measured after each injection, relative to the instrument baseline. These power output levels were converted into rates of reaction, according to Todd & Gomez, Anal. Biochem., 296, pp. 1-9 (2001), the disclosure of which is herein incorporated, and the resulting rates were plotted against substrate concentration. From this plot, the kcat and KM were determined with a computer fitting routine according to standard Michaelis-Menton enzyme kinetics.
To ensure that the compounds would be substrates for MSR, we determined the substrate specificities of MSR by choosing test compounds that contained a sulfoxide moiety and testing those compounds for MSR activity in the enzyme assay described below. Table 1 sets forth compounds that were tested for their ability to serve as MSR substrates using the isothermal titration calorimetry assay described above: […]

[4] = Solubility of test compounds in assay buffer; format: physicochemical; details: Tris assay buffer, pH 7.5, aqueous buffer; 50 mM Tris, 50 mM KCl, 5 mM TCEP, pH 7.50
[5] = system: reactive oxygen species; details: systemic injection; cited from earlier work
[6] = substrate: CC1=C(CC(=O)O)c2cc(F)ccc2/C1=C\c1ccc([S+](C)[O-])cc1; assay: purified protein, by the assay type; details: other: substrate for msrA, 300 nM enzyme, pH 7.50, 37° C, pH 7.5
[7] = substrate: C[S+]([O-])CC[C@H](N)C(=O)O; assay: purified protein, by the assay type; details: other: substrate for msrA, 300 nM enzyme, pH 7.50, 37° C, pH 7.5
[8] = substrate: CC1=C(CC(=O)NC(CC[S+](C)[O-])C(=O)O)c2cc(F)ccc2/C1=C\c1ccc([S+](C)[O-])cc1; assay: purified protein, by the assay type; format: biochemical, bovine; details: other: substrate for msrA, 300 nM enzyme, pH 7.50, 37° C, pH 7.5
Protocol: as §1
An assay using isothermal titration calorimetry was developed. […] Chemical modifications that increase kcat, a measure of how quickly a compound was turned over by the enzyme, and/or decrease its KM, a measure of how readily a compound bound to the enzyme, represent improvements in that compound's ability to be efficiently processed by msrA. […]
To ensure that the compounds would be substrates for MSR, we determined the substrate specificities of MSR by choosing test compounds that contained a sulfoxide moiety and testing those compounds for MSR activity in the enzyme assay described below. […]

Molecule: CS(=O)(=O)c1ccc(C2=C(c3ccccc3)C(=O)OC2)cc1 [Vioxx]
partial recovery of dopamine production [1]: ~20%

substrate for msrA (turned over by the enzyme) [2]: produces the large heat output
Molecule: C[S+]([O-])CC[C@H](N)C(=O)O (some centres unmarked) [compound 100, methionine sulfoxide]

Kcat [3]: 0.46 s⁻¹
Km [3]: 750 µM
Molecule: C[S+]([O-])c1ccccc1 (centres unmarked) [compound 102, methyphenylsulfoxide]

Kcat [3]: 0.064 s⁻¹
Km [3]: 314 µM
Molecule: C[S+](C)[O-] [compound 103, DMSO]

solubility [4]: < 1000 µM
Molecule: C[S+]([O-])c1ccc(-c2cc(C(F)(F)F)nn2-c2ccc(S(N)(=O)=O)cc2)cc1 (centres unmarked) [compound 105]

solubility [4]: < 1000 µM
Molecule: C[S+]([O-])c1ccc(CC(=O)O)cc1 (centres unmarked) [compound 106]

solubility [4]: < 1000 µM
Molecule: CSc1ccc(/C=C2/C(C)=C(CC(=O)NC(CC[S+](C)[O-])C(=O)O)c3cc(F)ccc32)cc1 (centres unmarked) [compound 107]

solubility [4]: < 1000 µM
Molecule: C[S+]([O-])c1ccc(-c2cc(C(=O)O)nn2-c2ccc(S(N)(=O)=O)cc2)cc1 (centres unmarked) [compound 108]

Kcat [3]: 0 s⁻¹
substrate for msrA (turned over by the enzyme) [2]: does not get turned over by msrA
substrate for msrA (turned over by the enzyme) ([2]; listed as methionine sulfone): not a substrate for msrA
Molecule: CS(=O)(=O)CC[C@H](N)C(=O)O [compound 109, methionine sulfone]

Molecule: CC(C)(C)[N+]([O-])=Cc1ccccc1 [phenyl-N-tert-butylnitrone (PBN), phenyl-N-tert-butylnitrone]
relief of SNL-induced mechanical allodynia [5]: relieves SNL-induced mechanical allodynia in a dose-dependent manner

B1: bovine msrA (Bos taurus) (protein)
chain: MGDSAAKIVSPQEALPGRKEPLVVAAKHHVNGNRTVEPFPEGTQMAVFGMGCFWGAERKFWTLKGVYSTQVGFAGGYTPNPTYKEVCSGKTGHAEVVRVVFQPEHISFEELLKVFWENHDPTQGMRQGNDHGSQYRSAIYPTSAEHVGAALKSKEDYQKVLSEHGFGLITTDIREGQTFYYAEDYHQQYLSKDPDGYCGLGGTGVSCPLGIKK
notes: made in house; host or cells: E. coli
Km [6]: 112 µM
kcat [6]: 0.56 s⁻¹
Km [7]: 504 µM
kcat [7]: 0.27 s⁻¹
Km [8]: 7.6 µM
kcat [8]: 0.27 s⁻¹
